Key:
SJSA xenografts = assay: Tumor growth in nude mice bearing SJSA xenografts; type: in vivo; details: SJSA xenografts (average 150 mg), ip, 5 doses/week
Description: 51:173-182, 1996). […] The control group received physiological saline only.
Tumor growth was monitored using the methods previously reported (74,75). Tumor weight (g) was calculated by the formula, ½·a·b^2, where “a” is the long diameter (cm) and “b” is the short diameter (cm) of the tumor. At the end of the experiment, tumors were removed, weighed, and then fixed for pathology evaluation.

JAR xenografts = assay: Tumor regression and survival of nude mice bearing large JAR xenografts, intratumoral injection; details: JAR xenografts (average 2,000 mg)
Description: Administration was by direct injection into the tupors at the designated daily dose, 5 doses/week. Anti-MDM2 oligonucleotide: AS5-2H (5 mg/kg/day, 5 injections); anti-MDM2 oligonucleotide (5 mg/kg)+HCPT (3 mg/kg); control (saline); HCPT: 3 mg/kg/day.
The tumor cell lines, SJSA and JAR, were cultured under the same conditions as in in vitro studies (Chen et al., PNAS 1998, supra). Human cancer xenograft models were established using the methods reported previously (Cai et al., Intl. J. Oncol. 10:953-960, 1997; and Zhang et al., Intl. J. Oncol. 10:1147-1156, 1997). Female nude mice (five week old) were used in the study. Cultured SJSA and JAR cells were harvested from the monolayer cultures, washed twice with DMEMF-12 HAM medium, resuspended in DMEM, and injected s.c. (20×10^6 cells, total volume 0.2 ml) into the left inguinal area of the mice. The animals were monitored by general clinical observation, body weight, and tumor growth. […] Animals with JAR cells were treated when the tumor size reached 2,000 mg. The animals bearing human cancer carcinoma xenografts were randomly divided into treatment groups and a control group (6-10 mice/group). Oligonucleotides dissolved in physiological saline (0.9% NaCl) were administered by ip injection at various daily doses, 5 consecutive days per week. The control group received physiological saline only. […]

[1] = tested on: MDM2, p53 and p21 protein levels in LS174T cells; assay: Western blot of MDM2, p53 and p21 in LS174T cells; type: cell-based, human; details: 400 nM Oligo 24 hr
Description: Chemicals and Reagents. Cell culture media and phosphate-buffered saline (PBS) were obtained from Sigma Chemical Co. (St. Louis, Mo.). Fetal bovine serum (FBS), antibodies against p53 and p21, Lipofectin, trypsin, penicillin-streptomycin, and trypan blue stain were purchased from GIBCO-BRL (Grand Island, N.Y.). The anti-human-MDM2 monoclonal antibody (Chen L. et al., Proc Natl Acad Sci USA, 95: 195-200, 1998; Chen L. et al., Mol. Med. 5: 21-34, 1999) was kindly provided by J. Chen (Moffitt Cancer Center, Tampa, Fla.). Chemotherapeutic agents adriamycin and 5-fluorouracil (5-FU) were obtained from Sigma. Natural product topoisomerase I inhibitor 10-hydroxycamptothecin (HCPT) was obtained from the Midwest Co. (Beijing, China) with the purity of the drug being greater than 98% (Zhang R. et al., Cancer Chemother Pharm 41: 257-267, 1998). Cell Culture. The tumor cell lines, LS174T and DLD-1 were obtained from the American Type Culture Collection (Rockville, Md.) and cultured according to their instructions. LS 174T cells were cultured in MEM with 0.1 mM nonessential amino acids and Earle's balanced salt solution containing 10% FBS and DLD-1 cells in RPMI 1640 medium containing 10% FBS. All media included 1% penicillin/streptomycin. […] Cells were incubated with Oligos AS or ASM at various concentrations for 72 hr, in the presence of Lipofectin (7 μg/ml). […] Western Blot Analysis. The MDM2, p53 and p21 levels in cultured cells were analyzed by using the methods described previously (earlier (Chen L. et al., Proc Natl Acad Sci USA, 95: 195-200, 1998; Chen L. et al., Mol. Med. 5: 21-34, 1999; Wang H. et al., Int J. Oncol. 15: 653-660, 1999). In brief, cell lysate containing identical amounts of total protein were fractionated by SDS-PAGE and transferred to Bio-Rad Trans-Blot nitrocellulose membranes (Bio-Rad Laboratories, Hercules, Calif., USA). The nitrocellulose membrane was then incubated with blocking buffer (PBS containing 0.1% Tween 20 and 5% non-fat milk) for 1 hr at room temperature and washed with the washing buffer (PBS containing 0. 1% Tween 20) for 5 min twice. The membrane was incubated with primary (anti-MDM2, anti-p53, or anti-p21) antibody overnight at 4° C. or for 1 hr at room temperature with gentle shaking. The membrane was washed with the washing buffer for 15 min and then twice for 5 min, and then incubated with 1:5000 diluted goat anti-mouse IgG-horse radish peroxidase conjugated antibody (Bio-Rad, Hercules, Calif.) for 1 hr at room temperature. After washing as described above the protein of interest was detected by ECL reagents from Amersham (Arlington Height, Ill.). Results. LS174T Model. In vitro inhibition of MDM2 expression by Oligo AS was shown in a sequence-specific, increasing dose-dependent manner (FIG. 19). […] Control oligonucleotide, Oligo ASM had no effect on MDM2, p53 or p21 protein levels at 500 nM, the highest concentration tested in the study.
Following in vitro combination treatment of Oligos and chemotherapeutic agents HCPT, adriamycin, and 5-FU, the protein levels of MDM2, p53 and p21 were determined in LS174T cells. Cells were incubated with 400 nM Oligo in the presence of Lipofectin for 24 hr, followed by addition of various concentrations of chemotherapeutic agents and incubation for additional 24 hr.

Oligo AS: 20-mer mixed-backbone phosphorothioate oligonucleotide with 2′-O-methyl ends, 5′UGACACCTGTTCTCACUCAC-3′; SEQ ID NO:47 (mixed phosphorothioate backbone with 2'-O-methyl ends, pattern not given here)
effect on tumor growth (SJSA xenografts): dose-dependent effect | tumor regression (JAR xenografts; direct injection): tumor regression | animals surviving up to 4 weeks (JAR xenografts; direct injection into tumors, 5 mg/kg/day): 20% | MDM2, p53 and p21 protein levels, oligo pre-treatment then 5-FU ([1]; then 5-FU 24 hr): MDM2 expression was inhibited, resulting in significant elevated p53 and p21 levels | MDM2, p53 and p21 protein levels, oligo pre-treatment then HCPT ([1]; then HCPT 24 hr): MDM2 expression was inhibited, resulting in significant elevated p53 and p21 levels | MDM2, p53 and p21 protein levels, oligo pre-treatment then adriamycin ([1]; then adriamycin 24 hr): MDM2 expression was inhibited, resulting in significant elevated p53 and p21 levels

From patent publication US6946447B2, “MDM2-specific antisense oligonucleotides” (Hybridon, Inc., priority 1997, dated 2005)
